Our source for the GI50 and TGI values is PubChem BioAssay (NCI).

Where “and” joins values, the source holds several entries; their conditions need not be identical. Equal values may be shown once.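 Exposure lasted 48 hours, with cells grown in 96-well plates and compounds tested at five concentrations. GI50 is the concentration that inhibits growth by half. TGI is the concentration that stops growth completely.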

Test systems include BT-549 breast; DU-145 prostate; EKVX NSCLC; HL-60(TB) leukemia; KM12 colon; MDA-MB-231 breast; MOLT-4 leukemia; SF-268 CNS; SK-MEL-2 melanoma; SK-OV-3 ovarian.
What all share (assay): NCI tumour cell line growth inhibition, 48 h

For `COc1cc(/C=C\[N+](=O)[O-])ccc1OCc1ccccc1`, the GI50 in the assay with BT-549 breast is 1.58 µM; with DU-145 prostate, 1.8 µM; in the assay on EKVX NSCLC it was 3.71 µM; in the assay on HL-60(TB) leukemia it was 2.48 µM; in the assay on KM12 colon, 3.06 µM; in the assay on MDA-MB-231 breast it was 1.85 µM. The GI50 in the assay on MOLT-4 leukemia was 2.7 µM; in the assay on SF-268 CNS it was 2.83 µM; with SK-MEL-2 melanoma, 3.67 µM; in the assay on SK-OV-3 ovarian, 4.65 µM. The TGI with BT-549 breast was determined as 3.3 µM; with DU-145 prostate, 3.52 µM; in the assay on EKVX NSCLC, 17.6 µM; in the assay with HL-60(TB) leukemia it was 6.16 µM; with KM12 colon, 10.8 µM; in the assay with MDA-MB-231 breast, 5.55 µM. Further, the TGI in the assay on MOLT-4 leukemia was 7.61 µM; with SF-268 CNS, 11.5 µM; in the assay on SK-MEL-2 melanoma, 14.6 µM; in the assay on SK-OV-3 ovarian it was 15.2 µM.

Take `OCCSCc1ccccc1`: the TGI in the assay with BT-549 breast, in the assay with DU-145 prostate, in the assay with EKVX NSCLC, in the assay with HL-60(TB) leukemia, in the assay with KM12 colon and with MDA-MB-231 breast was more than 100 µM throughout. In addition, the TGI with MOLT-4 leukemia, in the assay with SF-268 CNS, with SK-MEL-2 melanoma and in the assay on SK-OV-3 ovarian was more than 100 µM in each case.

With `C#CC1(O)C(COP(=O)(O)OC2CC(n3cc(F)c(=O)[nH]c3=O)OC2CO)OC(n2ccc(N)nc2=O)C1O` (centres undefined), the GI50 in the assay on BT-549 breast was less than 0.0157 µM; with DU-145 prostate, less than 0.011 µM; in the assay on EKVX NSCLC it was 0.738 µM; with HL-60(TB) leukemia, less than 0.0181 µM; in the assay with KM12 colon, less than 0.01 µM; in the assay with MDA-MB-231 breast, 0.0731 µM. Also, the GI50 in the assay with MOLT-4 leukemia was less than 0.01 µM; in the assay on SF-268 CNS, less than 0.01 µM; in the assay with SK-MEL-2 melanoma, 0.0735 µM; with SK-OV-3 ovarian it was 0.0735 µM. Moreover, the TGI with BT-549 breast is 0.909 µM; with DU-145 prostate, 3.62 µM; in the assay with EKVX NSCLC it was 16 µM; in the assay with KM12 colon it was more than 29 µM; in the assay with MDA-MB-231 breast it was more than 61.9 µM; in the assay with MOLT-4 leukemia, more than 39 µM. The figures for the TGI with SF-268 CNS, in the assay with SK-MEL-2 melanoma and with SK-OV-3 ovarian were 13.5 µM, 1.66 µM and more than 100 µM, respectively.

Turning to `COc1cc2c3c(c1)c1cc(OC)c(OC)cc1c[n+]3CC2`, the GI50 was 7.23 µM with BT-549 breast; 40.3 µM in the assay on DU-145 prostate; more than 100 µM in the assay with EKVX NSCLC; more than 100 µM in the assay with HL-60(TB) leukemia; 5.69 µM with KM12 colon; more than 100 µM with MDA-MB-231 breast. In addition, the GI50 was 5.16 µM with MOLT-4 leukemia, 0.351 µM in the assay on SF-268 CNS, 16.7 µM in the assay with SK-MEL-2 melanoma and 89.5 µM in the assay with SK-OV-3 ovarian. Moreover, the TGI is 22.7 µM and 55.2 µM in the assay with BT-549 breast; 50 µM and > 100 µM with DU-145 prostate; 50 µM and > 100 µM in the assay on EKVX NSCLC; more than 100 µM in the assay with HL-60(TB) leukemia; 19.3 µM and 69.9 µM in the assay on KM12 colon; more than 100 µM with MDA-MB-231 breast. Further, the TGI was 50 µM and > 100 µM in the assay with MOLT-4 leukemia; 3.3 µM and 3.8 µM in the assay with SF-268 CNS; 50 µM and 71.3 µM in the assay with SK-MEL-2 melanoma; more than 100 µM in the assay on SK-OV-3 ovarian.

On to `O=c1nc(Nc2cccc(Cl)c2)oc2cc(Cl)oc(=O)c12`, for which the GI50 in the assay with BT-549 breast is 22.5 µM; with DU-145 prostate, 10.4 µM; with EKVX NSCLC it was 16.9 µM; in the assay with HL-60(TB) leukemia, 10.8 µM; in the assay on KM12 colon, 11.4 µM; with MDA-MB-231 breast, 5.78 µM. For the same compound, the GI50 was 3.24 µM with MOLT-4 leukemia, 3.69 µM in the assay on SF-268 CNS, 2.02 µM in the assay with SK-MEL-2 melanoma and 17.2 µM with SK-OV-3 ovarian. The TGI with BT-549 breast is 95.7 µM; in the assay with DU-145 prostate, 25.3 µM; in the assay on EKVX NSCLC, 39.8 µM; in the assay with HL-60(TB) leukemia it was 55.2 µM; in the assay on KM12 colon, 31.8 µM; in the assay with MDA-MB-231 breast, 30.9 µM. Moreover, the TGI in the assay on MOLT-4 leukemia came out at 16.3 µM; with SF-268 CNS, 14.2 µM; in the assay with SK-MEL-2 melanoma it was 4.61 µM; in the assay on SK-OV-3 ovarian, 66.1 µM.

Consider `CCOc1cc2c(NCCCN(CCO)CCO)ncnc2c(OCC)c1OCC`, for which the TGI in the assay with BT-549 breast, in the assay with DU-145 prostate, in the assay on EKVX NSCLC, in the assay on HL-60(TB) leukemia, in the assay with KM12 colon and with MDA-MB-231 breast was more than 100 µM in each case. In addition, the TGI with MOLT-4 leukemia, in the assay with SF-268 CNS, with SK-MEL-2 melanoma and with SK-OV-3 ovarian was more than 100 µM in each case.

For `CN(C)CCCN1c2nc3ccccc3cc2Sc2cc3ccccc3nc21`, the GI50 with BT-549 breast is 1.42 µM; in the assay on DU-145 prostate, 1.65 µM; in the assay on EKVX NSCLC, 1.5 µM; in the assay on HL-60(TB) leukemia it was 1.34 µM; with KM12 colon, 1.51 µM; with MDA-MB-231 breast it was 1.41 µM. The GI50 with MOLT-4 leukemia is 0.892 µM; in the assay with SF-268 CNS, 1.59 µM; in the assay on SK-MEL-2 melanoma, 1.3 µM; in the assay on SK-OV-3 ovarian it was 1.59 µM. The TGI in the assay with BT-549 breast was 2.84 µM; in the assay on DU-145 prostate, 3.01 µM; with EKVX NSCLC, 3.23 µM; with HL-60(TB) leukemia, 2.79 µM; in the assay on KM12 colon, 2.88 µM; with MDA-MB-231 breast, 2.75 µM. The TGI in the assay with MOLT-4 leukemia amounted to 2.31 µM; with SF-268 CNS it was 3 µM; with SK-MEL-2 melanoma, 2.84 µM; in the assay with SK-OV-3 ovarian it was 3.01 µM.

For the compound `CCN1C(=S)N(CC)C2C1NC(=S)N2/N=C/C=C/c1ccccc1` (centres undefined), the GI50 in the assay with BT-549 breast is 5.44 µM; in the assay on DU-145 prostate, 2.42 µM; in the assay on EKVX NSCLC it was 4.19 µM; in the assay with HL-60(TB) leukemia, 0.387 µM; in the assay on KM12 colon, 1.21 µM; with MDA-MB-231 breast, 2.75 µM. The GI50 was 1.02 µM with MOLT-4 leukemia, 5.51 µM in the assay with SF-268 CNS, 1.62 µM with SK-MEL-2 melanoma and 2.4 µM in the assay with SK-OV-3 ovarian. Besides, the TGI with BT-549 breast worked out at 21.7 µM; in the assay on DU-145 prostate, 12.2 µM; with EKVX NSCLC, 34.7 µM; with HL-60(TB) leukemia, 1.79 µM; with KM12 colon it was 14.7 µM; in the assay with MDA-MB-231 breast, 14.6 µM. Moreover, the TGI in the assay with MOLT-4 leukemia came out at 25.4 µM; in the assay with SF-268 CNS, 27.2 µM; in the assay with SK-MEL-2 melanoma, 13.7 µM; in the assay with SK-OV-3 ovarian, 14.7 µM.
